Tests used:
[1] = test system: LACK-sensitized and challenged Balb/c ByJ mice; experiment: LACK-induced allergic asthma model, prophylactic i.p. treatment; type: in vivo; conditions: 1 mg/Kg i.p. prophylactic
Experimental: Females Balb/c ByJ mice of 6-week old were purchased from the Centre d'Elevage Janvier (CERJ, Le Genest-St-lsle, France). All the mice were sensitised by 2 i.p. injections of 10 μg LACK protein precipitated in 2 mg of Alum (PerBio Science France SAS, Brebières, France) at days 0 and 7.
Animals were divided in groups, as follow: • LACK-sensitized and saline-challenged mice (4 mice) • LACK-sensitized and challenged mice (8 mice) • OM-197-MP-AC-treated, LACK-sensitized and challenged mice (8 mice)
Mice of the third group were treated intraperitoneally with 1 mg/Kg (20 μg per mouse) of OM-197-MP-AC. Mice were treated on days: −1, 1, 2, 3, 6, 8, 9, 10 and 11. From day 16 to day 21, mice of groups B and C were exposed to a daily 20-min aerosol challenge of a LACK solution (0.15%) whereas mice of the saline group received a saline solution as control.
AHR was measured for all the mice one day after the last antigen challenge by whole-body plethysmography (Emka) in response to increasing concentrations (6-25 mg/ml) of inhaled methacholine (acetyl methyl choline, Sigma). AHR is expressed as enhanced pause (Penh, see FIG. 4), a dimensionless parameter perfectly correlated to airway compliance and resistance calculated value, which correlates with measurement of airway resistance, impedance, and intrapleural pressure.
All the mice were bled by heart puncture one day after the last aerosol. Total IgE were quantified by ELISA using rat EM-95 anti-IgE mAbs as coating antibody and rat anti-IgE mAbs coupled to biotin as second antibody as described (Julia et al., 2002).
Individual mice were bled and a canula was inserted into their trachea. Lungs were washed 3 times with 1 ml of warmed PBS. Cells were washed with PBS, resuspended in 300 μl, and counted using a Burker-Türk chamber. For differential BAL cell counts, cytospin preparations were made and stained with Wright/Giemsa coloration. The respective numbers of neutrophils, eosinophils, and other mononuclear cells were determined by microscopic examination. Only the percentage of eosinophils (FIG. 5) is reported here.
To investigate lung cytokine contents of treated and untreated animals, protein extracts were prepared from lungs of LACK-sensitized and PBS-challenged wt mice (group “Control”), LACK-sensitized and challenged wt mice (group Asthma”), OM-197-MP-AC-treated wt mice (group “OM-197”). IL-4, IL-5, IL-13 contents were analyzed by multiplex analysis using FACSArray.
Treated or untreated LACK-sensitized mice (see above) were next challenged with daily aerosol of LACK for five consecutive days. One day after the last aerosol, AHR was measured by whole-body plethysmography in response to increasing concentrations of aerosolized methacholine.
To further investigate the effects of prophylactic OM-197-MP-AC on allergic airway inflammation, proteins were extracted from lungs of both treated and untreated WT mice, and cytokines known to play a important role in asthma (IL-4, IL-5 and IL-13) were quantified by multiplex analysis using CBA array beads and FACSarray. Data were normalized to the total quantity of proteins and given as pg of cytokine per mg of lung proteins.

NOD mice = experiment: Occurrence of diabetes in Non Obese Diabetic (NOD) mice; type: in vivo; conditions: for Occurrence of diabetes versus control (Kaplan-Meier, logrank): 10 weeks
Experimental: Group of 10 female 6-week old NOD mice were treated during 10 weeks with either 0.01, 0.1, and 1 mg/kg of OM-197-MP-AC. A group of 6 female MOD mice receiving 200 μl PBS i.p. 3 times a week was used as control.
In this series of experiments, the treatment was continued until the mice have reached 16 weeks of age. This is the point in time when control animals start developing overt diabetes.
Results in terms of diabetes incidence were compared to those obtained in control animals. Diabetes was checked once a week by glucosuria testing, using test strips (Glukotest®, Roche, France), twice a week when diabetes appeared. Diabetes was confirmed by evaluating glycemia (>3 mg/ml) with test strips (Glucotrend®).
The occurrence of diabetes in the different experimental groups is plotted (see FIG. 15) using the Kaplan-Meier method, i.e. non parametric cumulative survival plot. The statistical comparison between the curves is performed using the logrank (Mantel-Cox) test which provided the corresponding χ2 values.
FIG. 15: Occurrence of diabetes in NOD mice. Mice were treated i.p. with either PBS (6 animals), or the 3 indicated doses of OM-197-MP-AC (3 groups of 10 animals). Diabetes was checked once a week by glucosuria testing (Glukotest), and twice a week when diabetes appeared. Diabetes was confirmed by evaluating glycemia (>3 mg/ml) with test strips (Glucotrend®). The occurrence of diabetes in the different experimental groups is plotted (see FIG. 15) using the Kaplan-Meier method, i.e. non parametric cumulative survival plot. The statistical comparison between the curves is performed using the logrank (Mantel-Cox) test which provided the corresponding χ2 values: OM-197-MP-AC 1 mg/kg p=0.321; 0.1 mg/kg=0.0543

[2] = test system: Limulus Amoebocyte Lysate; experiment: Limulus Amoebocyte Lysate chromogenic test (LAL endotoxicity); type: biochemical
Experimental: Endotoxicity was determined first for OM-197-MP-AC and for OM-294-DP by the Limulus Amoebocyte Lysate chromogenic test (Chromogenic-LAL of Bio-Whittaker, kit n° 50-65OU).
The enzymatic reaction is carried out at 37° C. and the formation of the chromogen over time is measured at 405 nm. The time necessary to reach 0.2 units of D.O. is recorded and the endotoxic activity calculated in relation to a LPS standard (standard curve). The results are expressed in EU (Endotoxin Unit) in relation to a standardized preparation of E. coli LPS (1 EU corresponds to 0.08 ng equivalent LPS).

[3] = lung protein extracts, CBA/FACSArray

CCCCCCCCCCCC(=O)O[C@H](CCCCCCCCCCC)CC(=O)N[C@@H](CCOP(=O)(O)O)C(=O)NCCC[C@H](COC(=O)CCCCCN)NC(=O)C[C@H](O)CCCCCCCCCCC [OM-197-MP-AC, (3S, 9R)-3-[(R)-3-dodecanoyloxytetradecanoylamino]-4-oxo-5-aza-9-[(R)-3-hydroxytetradecanoylamino]-decan-1, 10-diol 1-dihydrogenophosphate 10-(6-aminohexanoate)]
Eosinophils in BAL, less than untreated control mice [1]: 3 times less
Total IgE in sera, less than untreated sensitized, challenged mice ([1]; ELISA): 2 fold less
Amount of KC produced in lungs ([1]; lung protein extracts): reduced by half
Lung IFN-γ, less than untreated mice ([1]; lung protein extracts): 2 times less
Lung IL-6, less than untreated mice ([1]; lung protein extracts): 1.5 times less
Lung MCP-1, less than untreated animals ([1]; lung protein extracts): 1.8 times less
Lung IL-4, less than untreated mice [1, 3]: 5 times less
Lung IL-5, less than untreated mice [1, 3]: 5 times less
Lung IL-13, less than untreated mice [1, 3]: 3.5 times less
Airway hyperresponsiveness (AHR, Penh) to methacholine ([1]; whole-body plethysmography one day after last challenge): did not exhibit AHR
Occurrence of diabetes versus control (Kaplan-Meier, logrank) (NOD mice; 0.1 mg/kg i.p.): positive trend
Animals exhibiting diabetes (NOD mice; 0.3 mg/kg, week 27, another experiment): 27%
Occurrence of diabetes versus control (Kaplan-Meier, logrank) (NOD mice; 1 mg/kg i.p.): significantly active
Limulus activity in the chromogenic LAL assay [2]: very little or no Limulus activity

Reference: patent publication US8618080B2, “Immunomodulatory compounds and treatment of diseases related to an overproduction of inflammatory cytokines” (OM Pharma, priority 2006, dated 2013)
